Where two headings read alike, the source gives them in different places.
Legend:
[1] = assay type: physicochemical; design: key to Fibril / Fibril Formation / TEM 2cat / Fibril: 1 = fibrils present; 0 non-fibrillar structures; conditions: for Fibril / Fibril Formation: 1 mg/mL, uranyl acetate stain, qualitative
[2] = assay type: physicochemical; conditions: for ThT Cat. / ThT-Fluorescence (categorical): ThT-active if fluorescence at least twice the control
Method in brief: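 Fibrils (1 mg/mL solution) were mixed with 50 µM ThT in PBS for 15 min at RT, and fluorescence was read at λex 440/λem 488 nm against a PBS blank, as a triplicate mean ± SD. Zeta potential came from electrophoretic mobility (Smoluchowski) after 1 d aggregation at 1 mg/mL in PBS pH 7.4, diluted into 1 mM KCl.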

[3] = Conversion rate (CR) assay with fluorescamine; assay type: physicochemical; design: key to CR: % = 100−100×filtrate/original fluorescence intensity
Method in brief: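 Spectra: 64 scans, 2 cm^-1, lyophilized PNF (1 mg/mL source). CR = 100 − 100 × filtrate/original fluorescamine signal; triplicate, ± SD.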

[4] = TEM, 1 = fibrils present, 0 = non-fibrillar
[5] = TEM, 1 = fibrils present, 0 = non-fibrillar structures
[6] = category: fibrils present or non-fibrillar
[7] = Fig. S7 panel B, conversion rate, fluorescamine assay
[8] = conversion rate, fluorescamine assay
[9] = FigS12 panel A, fibril category by TEM
[10] = ThT fluorescence category, 1 if Rel. ThT >2

CKFKFQFNMWQ
TEM 2cat ([1]; Fig S10 panel D): 1 | Fibril ([1]; Fig S10 panel E): 1 | Fibril / Fibril Formation ([1]; TEM): 1 | Fibril [1, 4]: 1 | Fibril [1, 5]: 1 | TEM 2cat [1, 6]: 1 | Tht category (> 2 to blank = +) ([2]; Fig S10 panel D): 1 (ThT. Cat is 1, if Rel. ThT >2) | ThT Cat. ([2]; Fig S10 panel E): 1 (ThT. Cat is 1, if Rel. ThT >2) | ThT Cat, ([2]; ThT category, 1 if Rel. ThT >2): 1 (ThT. Cat is 1, if Rel. ThT >2) | ThT Cat. ([2]; ThT category, 1 if Rel. ThT >2): 1 (ThT. Cat is 1, if Rel. ThT >2) | ThT Cat. / ThT-Fluorescence (categorical) [2]: 1 (ThT. Cat is 1, if Rel. ThT >2) | CR / % [3, 7]: 97.5% | CR [3, 8]: 97.52

HGEHGEHGE
TEM 2cat ([1]; Fig S10 panel D): 0 | Fibril ([1]; Fig S10 panel E): 0 | TEM 2cat [1, 9]: 0 | Fibril ([1]; FigS12 panel B, TEM): 0 | Fibril / Fibril Formation ([1]; TEM): 0 | Fibril [1, 4]: 0 | Fibril [1, 5]: 0 | Tht category (> 2 to blank = +) ([2]; Fig S10 panel D): 0 (ThT-inactive (N-Fold <2)) | ThT Cat. ([2]; Fig S10 panel E): 0 (ThT-inactive (N-Fold <2)) | Tht category (> 2 to blank = +) ([2]; FigS12 panel A): 0 (ThT-inactive (N-Fold <2)) | ThT Cat, ([2]; FigS12 panel B): 0 (ThT-inactive (N-Fold <2)) | ThT Cat, ([2]; ThT category, 1 if Rel. ThT >2): 0 (ThT-inactive (N-Fold <2)) | ThT Cat. ([2]; ThT category, 1 if Rel. ThT >2): 0 (ThT-inactive (N-Fold <2)) | ThT Cat. / ThT-Fluorescence (categorical) [2]: 0 (ThT-inactive (N-Fold <2)) | CR / % [3, 7]: 42.9% | CR [3, 8]: 42.88

KAKAQANMWQ
TEM 2cat ([1]; Fig S10 panel D): 0 | Fibril ([1]; Fig S10 panel E): 0 | TEM 2cat [1, 9]: 0 | Fibril ([1]; FigS12 panel B, TEM): 0 | Fibril / Fibril Formation ([1]; TEM): 0 | Fibril [1, 4]: 0 | Fibril [1, 5]: 0 | Tht category (> 2 to blank = +) ([2]; Fig S10 panel D): 0 (ThT-inactive (N-Fold <2)) | ThT Cat. ([2]; Fig S10 panel E): 0 (ThT-inactive (N-Fold <2)) | Tht category (> 2 to blank = +) ([2]; FigS12 panel A): 0 (ThT-inactive (N-Fold <2)) | ThT Cat, ([2]; FigS12 panel B): 0 (ThT-inactive (N-Fold <2)) | ThT Cat, ([2]; ThT category, 1 if Rel. ThT >2): 0 (ThT-inactive (N-Fold <2)) | ThT Cat. ([2]; ThT category, 1 if Rel. ThT >2): 0 (ThT-inactive (N-Fold <2)) | ThT Cat. / ThT-Fluorescence (categorical) [2]: 0 (ThT-inactive (N-Fold <2)) | Rel. ThT ([2]; n-fold ThT fluorescence vs control (PBS, 10% DMSO), 4 µL 1 mg/mL fibrils + 20 µL 50 µM ThT, 15 min RT, ex 440 / em 488 nm, triplicate): 1 | CR / % [3, 7]: 56.2% | CR / % ([3]; conversion of monomer to nanostructures, 3 kDa MWCO filtration, fluorescamine, ex 365 / em 470 nm, triplicate): 56% | CR [3, 8]: 56.24

CKFC
TEM 2cat ([1]; Fig S10 panel D): 0 | Fibril ([1]; Fig S10 panel E): 0 | TEM 2cat [1, 9]: 0 | Fibril ([1]; FigS12 panel B, TEM): 0 | Fibril / Fibril Formation ([1]; TEM): 0 | Fibril [1, 4]: 0 | Fibril [1, 5]: 0 | Tht category (> 2 to blank = +) ([2]; Fig S10 panel D): 0 (ThT-inactive (N-Fold <2)) | ThT Cat. ([2]; Fig S10 panel E): 0 (ThT-inactive (N-Fold <2)) | Tht category (> 2 to blank = +) ([2]; FigS12 panel A): 0 (ThT-inactive (N-Fold <2)) | ThT Cat, ([2]; FigS12 panel B): 0 (ThT-inactive (N-Fold <2)) | ThT Cat, ([2]; ThT category, 1 if Rel. ThT >2): 0 (ThT-inactive (N-Fold <2)) | ThT Cat. ([2]; ThT category, 1 if Rel. ThT >2): 0 (ThT-inactive (N-Fold <2)) | ThT Cat. / ThT-Fluorescence (categorical) [2]: 0 (ThT-inactive (N-Fold <2)) | CR / % [3, 7]: 35.9% | CR [3, 8]: 35.92

KIKIQI
TEM 2cat ([1]; Fig S10 panel D): 0 | Fibril ([1]; Fig S10 panel E): 0 | TEM 2cat [1, 9]: 0 | Fibril ([1]; FigS12 panel B, TEM): 0 | Fibril / Fibril Formation ([1]; TEM): 0 | Fibril [1, 4]: 0 | Fibril [1, 5]: 0 | Tht category (> 2 to blank = +) ([2]; Fig S10 panel D): 0 (ThT-inactive (N-Fold <2)) | ThT Cat. ([2]; Fig S10 panel E): 0 (ThT-inactive (N-Fold <2)) | Tht category (> 2 to blank = +) ([2]; FigS12 panel A): 0 (ThT-inactive (N-Fold <2)) | ThT Cat, ([2]; FigS12 panel B): 0 (ThT-inactive (N-Fold <2)) | ThT Cat, ([2]; ThT category, 1 if Rel. ThT >2): 0 (ThT-inactive (N-Fold <2)) | ThT Cat. [2, 10]: 0 (ThT-inactive (N-Fold <2)) | ThT Cat. / ThT-Fluorescence (categorical) [2]: 0 (ThT-inactive (N-Fold <2)) | CR / % [3, 7]: 18.9% | CR [3, 8]: 18.91

KIKQIINMWQ
TEM 2cat ([1]; Fig S10 panel D): 1 | Fibril ([1]; Fig S10 panel E): 1 | Fibril / Fibril Formation ([1]; TEM): 1 | Fibril [1, 4]: 1 | Fibril [1, 5]: 1 | TEM 2cat [1, 6]: 1 | Tht category (> 2 to blank = +) ([2]; Fig S10 panel D): 1 (ThT. Cat is 1, if Rel. ThT >2) | ThT Cat. ([2]; Fig S10 panel E): 1 (ThT. Cat is 1, if Rel. ThT >2) | ThT Cat, ([2]; ThT category, 1 if Rel. ThT >2): 1 (ThT. Cat is 1, if Rel. ThT >2) | ThT Cat. ([2]; ThT category, 1 if Rel. ThT >2): 1 (ThT. Cat is 1, if Rel. ThT >2) | ThT Cat. / ThT-Fluorescence (categorical) [2]: 1 (ThT. Cat is 1, if Rel. ThT >2) | CR / % [3, 7]: 90.1% | CR [3, 8]: 90.09

KNERIKNERI
TEM 2cat ([1]; Fig S10 panel D): 0 | Fibril ([1]; Fig S10 panel E): 0 | TEM 2cat [1, 9]: 0 | Fibril ([1]; FigS12 panel B, TEM): 0 | Fibril / Fibril Formation ([1]; TEM): 0 | Fibril [1, 4]: 0 | Fibril [1, 5]: 0 | Tht category (> 2 to blank = +) ([2]; Fig S10 panel D): 0 (ThT-inactive (N-Fold <2)) | ThT Cat. ([2]; Fig S10 panel E): 0 (ThT-inactive (N-Fold <2)) | Tht category (> 2 to blank = +) ([2]; FigS12 panel A): 0 (ThT-inactive (N-Fold <2)) | ThT Cat, ([2]; FigS12 panel B): 0 (ThT-inactive (N-Fold <2)) | ThT Cat, ([2]; ThT category, 1 if Rel. ThT >2): 0 (ThT-inactive (N-Fold <2)) | ThT Cat. ([2]; ThT category, 1 if Rel. ThT >2): 0 (ThT-inactive (N-Fold <2)) | ThT Cat. / ThT-Fluorescence (categorical) [2]: 0 (ThT-inactive (N-Fold <2)) | CR / % [3, 7]: 54.4% | CR [3, 8]: 54.36

KFKFQFNMWQ
TEM 2cat ([1]; Fig S10 panel D): 1 | Fibril ([1]; Fig S10 panel E): 1 | Fibril / Fibril Formation ([1]; TEM): 1 | Fibril [1, 4]: 1 | Fibril [1, 5]: 1 | TEM 2cat [1, 6]: 1 | Tht category (> 2 to blank = +) ([2]; Fig S10 panel D): 1 (ThT. Cat is 1, if Rel. ThT >2) | ThT Cat. ([2]; Fig S10 panel E): 1 (ThT. Cat is 1, if Rel. ThT >2) | ThT Cat, ([2]; ThT category, 1 if Rel. ThT >2): 1 (ThT. Cat is 1, if Rel. ThT >2) | ThT Cat. ([2]; ThT category, 1 if Rel. ThT >2): 1 (ThT. Cat is 1, if Rel. ThT >2) | ThT Cat. / ThT-Fluorescence (categorical) [2]: 1 (ThT. Cat is 1, if Rel. ThT >2) | CR / % [3, 7]: 96.2% | CR [3, 8]: 96.16

KAKAQA
TEM 2cat ([1]; Fig S10 panel D): 0 | Fibril ([1]; Fig S10 panel E): 0 | TEM 2cat [1, 9]: 0 | Fibril ([1]; FigS12 panel B, TEM): 0 | Fibril / Fibril Formation ([1]; TEM): 0 | Fibril [1, 4]: 0 | Fibril [1, 5]: 0 | Tht category (> 2 to blank = +) ([2]; Fig S10 panel D): 0 (ThT-inactive (N-Fold <2)) | ThT Cat. ([2]; Fig S10 panel E): 0 (ThT-inactive (N-Fold <2)) | Tht category (> 2 to blank = +) ([2]; FigS12 panel A): 0 (ThT-inactive (N-Fold <2)) | ThT Cat, ([2]; FigS12 panel B): 0 (ThT-inactive (N-Fold <2)) | ThT Cat, ([2]; ThT category, 1 if Rel. ThT >2): 0 (ThT-inactive (N-Fold <2)) | ThT Cat. [2, 10]: 0 (ThT-inactive (N-Fold <2)) | ThT Cat. / ThT-Fluorescence (categorical) [2]: 0 (ThT-inactive (N-Fold <2)) | CR / % [3, 7]: 0.3% | CR [3, 8]: 0.3138

— paper PMC10447463, “Data-mining unveils structure–property–activity correlation of viral infectivity enhancing self-assembling peptides” (Nature Communications, 2023)
